Test results reported in patent publication US20240344145A1, “PHARMACOGENOMICS SCORE TO MAKE DECISIONS ON THERAPY AUGMENTATION IN AML” (University of Florida Research Foundation, Incorporated, priority 2021, published 2024).

Test system: pediatric AML patients
Test: AML02 multicenter clinical trial, LDAC vs HDAC induction arms: MRD1, EFS and OS overall and by ACS10 score
Assay type: in vivo, human
Set-up: 3-year EFS / 4-year OS / 5-year OS / 4-year EFS / 5-year EFS / 3-year OS: unit not given here
Details: for 3-year EFS / 3-year OS / 4-year EFS / 4-year OS / 5-year EFS / 5-year OS / EFS HR for each one-point increase in ACS10: risk-adjusted Cox model; for Event-free Survival 5 years / Overall Survival 5 years: AML02 cohort; for 5 year EFS / five-year OS: low ACS10 score (≤0) patients; for 5 year EFS / five-year OS / EFS HR, low-ACS10 vs high-ACS10 score / OS HR, low-ACS10 vs high-ACS10 score / EFS HR for each one-point increase in ACS10: AML02; for MRDIND1 Negative (<0.1%) / MRDIND1 Positive (>=0.1%): number of patients per arm, after induction 1, AML02 cohort; for EFS HR, low-ACS10 vs high-ACS10 score / OS HR, low-ACS10 vs high-ACS10 score / EFS HR for each one-point increase in ACS10: within arm
Protocol: One hundred and sixty-six pediatric AML patients treated under the multicenter AML02 clinical trial protocol were included in the study. Details of study design and clinical outcome have been described elsewhere. Briefly, patients with de novo AML were randomized to receive either high (3 g/m^2, given every 12 h on days 1, 3, and 5; this condition is designated “HDAC”) or low dose (100 mg/m^2 given every 12 h on days 1-10; this condition is designated “LDAC”) cytarabine along with daunorubicin (50 mg/m^2 on days 2, 4 and 6) and etoposide (100 mg/m^2 on days 2-6) as a first course of chemotherapy with subsequent treatment tailored to response and risk classification. For initial risk assignment, patients with cytogenetic translocations comprisingt [8;21] (e.g., translocation between chromosome 8 and 21), inv (16), ort [9;11] were classified as low-risk. Patients with features such as deletion of chromosome 7 (−7), presence of FLT3-ITD mutation (FLT-ITD), cytogenetic translocation comprisingt [6;9], megakaryoblastic leukemia (AMKL), treatment-related AML, or AML arising from MDS were classified as high-risk AML. Patients lacking any of the low or high-risk group features were provisionally classified as standard risk AML. Patient risk classifications were updated on the basis of minimal residual disease evaluations. Clinical endpoints used in this evaluation were defined as follows: i) Minimal residual disease after induction 1 (“MRD1”) (patients were defined as MRD positive if they had ≥1 leukemic cell per 1000 mononuclear bone marrow cells (≥0.1%); ii) Complete remission defined as trilineage hematopoietic recovery with less than 5% blasts in the marrow; iii) Event-free survival (“EFS”) defined as the time from study enrollment to induction failure, relapse, secondary malignancy, death, or study withdrawal for any reason, with event-free patients censored on the date of last follow-up; and iv) Overall survival (“OS”) defined as the time from study enrollment to death, with living patients censored on the date of last follow-up. St. Jude Institutional Review Board approved the study, and informed consent was obtained from parents/guardians and consents/assents from the individuals.
The association of MRD1, EFS, and OS was evaluated with ACS10 scores in the AML02 discovery cohort and the AAML0531 validation cohort. The Kaplan-Meier method was used to estimate the EFS and OS probabilities for well-defined groups of patients. Cox regression models were used to associate ACS10 with EFS and OS and used logistic regression models to associate ACS10 with MRD1. The Wilcoxon rank-sum test and Kruskal-Wallis test were used to compare medians of numeric variables across groups. Chi-square tests and Fisher's exact test were used to evaluate the association among pairs of categorical variables. All p-values are two-sided. All statistical analyses were performed using R software (www.r-project.org).
The multicenter AML02 clinical trial randomly assigned subjects to receive low dose ara-C (LDAC: 100 mg/m^2; n=91 patients) or high dose ara-C(HDAC: 3 g/m^2; n=75 patients) in combination with daunorubicin and etoposide as the first course of chemotherapy as described above in patient cohort section. Thus, the association of SNPs with outcome within each arm separately was also explored (Table 5).
Given patients in AML02 cohort were randomized to receive low or augmented high dose of ara-C, this unique opportunity was leveraged to evaluate performance of ACS10 score within the different ara-C dose treatment arms (of note LDAC and HDAC arms had similar distribution of patients across, disease characteristics, risk group, cytogenetics, race, gender etc. Table 3). […]

[1] = patients with ACS10 score of +5, risk-adjusted Cox model
[2] = patients with ACS10 score of −5, risk-adjusted Cox model

Structure (SMILES): Nc1ccn([C@@H]2O[C@H](CO)[C@@H](O)[C@@H]2O)c(=O)n1 [LDAC, cytarabine]
- 3-year EFS (ACS10 score 0): 0.5527
- 3-year OS (ACS10 score 0): 0.7030
- 4-year EFS (ACS10 score 0): 0.5391
- 4-year OS (ACS10 score 0): 0.6960
- 5-year EFS (ACS10 score 0): 0.5316
- 5-year OS (ACS10 score 0): 0.6960
- 3-year EFS (ACS10 score 1): 0.6541
- 3-year OS (ACS10 score 1): 0.7604
- 4-year EFS (ACS10 score 1): 0.6423
- 4-year OS (ACS10 score 1): 0.7544
- 5-year EFS (ACS10 score 1): 0.6357
- 5-year OS (ACS10 score 1): 0.7544
- 3-year EFS (ACS10 score 2): 0.7393
- 3-year OS (ACS10 score 2): 0.8089
- 4-year EFS (ACS10 score 2): 0.7296
- 4-year OS (ACS10 score 2): 0.8039
- 5-year EFS (ACS10 score 2): 0.7242
- 5-year OS (ACS10 score 2): 0.8039
- 3-year EFS (ACS10 score 3): 0.8073
- 3-year OS (ACS10 score 3): 0.8489
- 4-year EFS (ACS10 score 3): 0.7997
- 4-year OS (ACS10 score 3): 0.8448
- 5-year EFS (ACS10 score 3): 0.7955
- 5-year OS (ACS10 score 3): 0.8448
- 3-year EFS (ACS10 score 4): 0.8596
- 3-year OS (ACS10 score 4): 0.8814
- 4-year EFS (ACS10 score 4): 0.8539
- 4-year OS (ACS10 score 4): 0.8781
- 5-year EFS (ACS10 score 4): 0.8507
- 5-year OS (ACS10 score 4): 0.8781
- 3-year EFS (ACS10 score 5): 0.8988
- 3-year OS (ACS10 score 5): 0.9074
- 4-year EFS (ACS10 score 5): 0.8946
- 4-year OS (ACS10 score 5): 0.9048
- 5-year EFS (ACS10 score 5): 0.8922
- 5-year OS (ACS10 score 5): 0.9048
- 3-year EFS (ACS10 score −1): 0.4399
- 3-year OS (ACS10 score −1): 0.6369
- 4-year EFS (ACS10 score −1): 0.4255
- 4-year OS (ACS10 score −1): 0.6289
- 5-year EFS (ACS10 score −1): 0.4176
- 5-year OS (ACS10 score −1): 0.6289
- 3-year EFS (ACS10 score −2): 0.3251
- 3-year OS (ACS10 score −2): 0.5632
- 4-year EFS (ACS10 score −2): 0.3112
- 4-year OS (ACS10 score −2): 0.5546
- 5-year EFS (ACS10 score −2): 0.3037
- 5-year OS (ACS10 score −2): 0.5546
- 3-year EFS (ACS10 score −3): 0.2202
- 3-year OS (ACS10 score −3): 0.4846
- 4-year EFS (ACS10 score −3): 0.2083
- 4-year OS (ACS10 score −3): 0.4756
- 5-year EFS (ACS10 score −3): 0.2020
- 5-year OS (ACS10 score −3): 0.4756
- 3-year EFS (ACS10 score −5): 0.0743
- 3-year OS (ACS10 score −5): 0.3280
- 4-year EFS (ACS10 score −5): 0.0683
- 4-year OS (ACS10 score −5): 0.3197
- 5-year EFS (ACS10 score −5): 0.0652
- 5-year OS (ACS10 score −5): 0.3197
- Event-free Survival 5 years (High ACS10 score group): 0.712 ± 0.063
- Overall Survival 5 years (High ACS10 score group): 0.829 ± 0.052
- Event-free Survival 5 years (Low ACS10 score group): 0.421 ± 0.08
- Overall Survival 5 years (Low ACS10 score group): 0.579 ± 0.08
- 5 year EFS: 42%
- five-year OS: 57%
- MRDIND1 Negative (<0.1%): 49^+
- MRDIND1 Positive (>=0.1%): 38^+
- 3-year EFS, model estimate [1]: 89.9%
- 3-year OS, model estimate [1]: 90.7%
- 3-year EFS, model estimate [2]: 7.4%
- 3-year OS, model estimate [2]: 32.8%
- Event-free Survival 5 years (probability, whole arm): 0.591 ± 0.0518
- Overall Survival 5 years (probability, whole arm): 0.724 ± 0.047
- EFS HR, low-ACS10 vs high-ACS10 score: 2.81
- OS HR, low-ACS10 vs high-ACS10 score: 2.98
- EFS HR for each one-point increase in ACS10: 0.70

Structure (SMILES): Nc1ccn([C@@H]2O[C@H](CO)[C@@H](O)[C@@H]2O)c(=O)n1 [HDAC, cytarabine]
- 3-year EFS (ACS10 score 0): 0.6070
- 3-year OS (ACS10 score 0): 0.6946
- 4-year EFS (ACS10 score 0): 0.5942
- 4-year OS (ACS10 score 0): 0.6875
- 5-year EFS (ACS10 score 0): 0.5872
- 5-year OS (ACS10 score 0): 0.6875
- 3-year EFS (ACS10 score 1): 0.6247
- 3-year OS (ACS10 score 1): 0.7260
- 4-year EFS (ACS10 score 1): 0.6122
- 4-year OS (ACS10 score 1): 0.7194
- 5-year EFS (ACS10 score 1): 0.6053
- 5-year OS (ACS10 score 1): 0.7194
- 3-year EFS (ACS10 score 2): 0.6418
- 3-year OS (ACS10 score 2): 0.7550
- 4-year EFS (ACS10 score 2): 0.6297
- 4-year OS (ACS10 score 2): 0.7489
- 5-year EFS (ACS10 score 2): 0.6231
- 5-year OS (ACS10 score 2): 0.7489
- 3-year EFS (ACS10 score 3): 0.6585
- 3-year OS (ACS10 score 3): 0.7816
- 4-year EFS (ACS10 score 3): 0.6468
- 4-year OS (ACS10 score 3): 0.7760
- 5-year EFS (ACS10 score 3): 0.6403
- 5-year OS (ACS10 score 3): 0.7760
- 3-year EFS (ACS10 score 4): 0.6747
- 3-year OS (ACS10 score 4): 0.8058
- 4-year EFS (ACS10 score 4): 0.6633
- 4-year OS (ACS10 score 4): 0.8007
- 5-year EFS (ACS10 score 4): 0.6570
- 5-year OS (ACS10 score 4): 0.8007
- 3-year EFS (ACS10 score 5): 0.6903
- 3-year OS (ACS10 score 5): 0.8278
- 4-year EFS (ACS10 score 5): 0.6793
- 4-year OS (ACS10 score 5): 0.8232
- 5-year EFS (ACS10 score 5): 0.6732
- 5-year OS (ACS10 score 5): 0.8232
- 3-year EFS (ACS10 score −1): 0.5889
- 3-year OS (ACS10 score −1): 0.6609
- 4-year EFS (ACS10 score −1): 0.5758
- 4-year OS (ACS10 score −1): 0.6533
- 5-year EFS (ACS10 score −1): 0.5686
- 5-year OS (ACS10 score −1): 0.6533
- 3-year EFS (ACS10 score −2): 0.5703
- 3-year OS (ACS10 score −2): 0.6251
- 4-year EFS (ACS10 score −2): 0.5569
- 4-year OS (ACS10 score −2): 0.6170
- 5-year EFS (ACS10 score −2): 0.5496
- 5-year OS (ACS10 score −2): 0.6170
- 3-year EFS (ACS10 score −3): 0.5513
- 3-year OS (ACS10 score −3): 0.5873
- 4-year EFS (ACS10 score −3): 0.5377
- 4-year OS (ACS10 score −3): 0.5788
- 5-year EFS (ACS10 score −3): 0.5302
- 5-year OS (ACS10 score −3): 0.5788
- 3-year EFS (ACS10 score −5): 0.5123
- 3-year OS (ACS10 score −5): 0.5073
- 4-year EFS (ACS10 score −5): 0.4983
- 4-year OS (ACS10 score −5): 0.4983
- 5-year EFS (ACS10 score −5): 0.4906
- 5-year OS (ACS10 score −5): 0.4983
- Event-free Survival 5 years (High ACS10 score group): 0.631 ± 0.074
- Overall Survival 5 years (High ACS10 score group): 0.743 ± 0.067
- Event-free Survival 5 years (Low ACS10 score group): 0.548 ± 0.089
- Overall Survival 5 years (Low ACS10 score group): 0.634 ± 0.088
- 5 year EFS: 55%
- five-year OS: 63%
- MRDIND1 Negative (<0.1%): 43^+
- MRDIND1 Positive (>=0.1%): 28^+
- 3-year EFS, model estimate [1]: 69.0%
- 3-year OS, model estimate [1]: 82.8%
- 3-year EFS, model estimate [2]: 51.2%
- 3-year OS, model estimate [2]: 50.7%
- Event-free Survival 5 years (probability, whole arm): 0.597 ± 0.0569
- Overall Survival 5 years (probability, whole arm): 0.699 ± 0.0537
- EFS HR, low-ACS10 vs high-ACS10 score: 1.28
- OS HR, low-ACS10 vs high-ACS10 score: 1.56
- EFS HR for each one-point increase in ACS10: 0.92
